Results reported in patent US7034056B2, “Aryl and biaryl compounds having MCH modulatory activity” (Pharmacopeia Drug Discovery, inc., priority 2001, dated 2006).

The molecules below were run against T1, hMCHR (MCH receptor) (Homo sapiens, UniProt Q99705) (assay: MCH Assay PCOP Protocol ([125I]-MCH SPA binding to hMCHR-CHO membranes)). Settings: [125I]-MCH 0.5 nM, hMCHR-CHO membranes; read-out: Activity (ranges of Ki values).
T1 construct: (or internally produced); host or cells: CHO (Chinese hamster ovary) cells, membrane preparation
Procedure, shortened: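 SPA binding with 10 μg hMCHR-CHO membranes and WGA-SPA beads in 25 mM HEPES pH 7.4, 10 mM NaCl, 10 mM MgCl2, 5 mM MnCl2, 0.1% BSA.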
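Wherever Activity (Ki range) is given: A 0.4–50 nM B 51–500 nM C 501–2500 nM.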

T1 sequence (Q99705 whole entry): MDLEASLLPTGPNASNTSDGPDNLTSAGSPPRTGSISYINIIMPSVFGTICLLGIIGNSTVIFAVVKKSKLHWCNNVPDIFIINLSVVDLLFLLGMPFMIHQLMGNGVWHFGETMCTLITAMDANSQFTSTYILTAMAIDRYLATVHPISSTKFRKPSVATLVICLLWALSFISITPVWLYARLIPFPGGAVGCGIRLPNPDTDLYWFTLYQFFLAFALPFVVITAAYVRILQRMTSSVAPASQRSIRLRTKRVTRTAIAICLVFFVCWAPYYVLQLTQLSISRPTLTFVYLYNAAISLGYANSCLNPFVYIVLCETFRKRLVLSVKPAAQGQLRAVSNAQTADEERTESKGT

| SMILES | Ki [nM] |
| --- | --- |
| O=C(NCC(CCN1CCC(NC(=O)c2cccs2)CC1)c1ccc(Cl)c(Cl)c1)Nc1cc(Cl)cc(Cl)c1 (centres unmarked) [Example 212] | 501 to 2500 |
| COCC(=O)NC1CCN(CCC(CNC(=O)Nc2cc(Cl)cc(Cl)c2)c2ccc(C)cc2)CC1 (centres unmarked) [Example 213] | 501 to 2500 |
| O=C(NCC(CCN1CCC(NC(=O)c2ccno2)CC1)c1ccc(Cl)cc1)Nc1cc(Cl)cc(Cl)c1 (centres unmarked) [Example 214] | 501 to 2500 |
| O=C(NCC(CCN1CCC(NC(=O)c2cccs2)CC1)c1ccc(Cl)cc1)Nc1cc(Cl)cc(Cl)c1 (centres unmarked) [Example 216] | 501 to 2500 |

The next lines start with the values.

| Ki [nM] | SMILES |
| --- | --- |
| 501 to 2500 | O=C(NCC(CCN1CCC(NC(=O)c2ccno2)C1)c1ccc(Cl)c(Cl)c1)Nc1cc(Cl)cc(Cl)c1 (centres unmarked) [Example 209] |
| 501 to 2500 | CC(=O)NC1CCN(CCC(CNC(=O)Nc2cc(Cl)cc(Cl)c2)c2ccc(Cl)c(Cl)c2)C1 (centres unmarked) [Example 210] |
| 501 to 2500 | CS(=O)(=O)NC1CCN(CCC(CNC(=O)Nc2cc(Cl)cc(Cl)c2)c2ccc(Cl)c(Cl)c2)C1 (centres unmarked) [Example 211] |
| 501 to 2500 | CC(=O)NC1CCN(CCC(CNC(=O)Nc2cc(Cl)cc(Cl)c2)c2ccc(C)cc2)C1 (centres unmarked) [Example 215] |

Same assay, conditions: [125I]-MCH binding to hMCHR-CHO membranes; class symbols for ranges of Ki; read-out: Activity (Ki range)

| SMILES | Ki [nM] |
| --- | --- |
| O=C(NCC(CCN1CCC(NC(=O)c2ccno2)CC1)c1ccc(Cl)c(Cl)c1)Nc1cc(Cl)cc(Cl)c1 (centres unmarked) [Example 217] | 501 to 2500 |
| CN(C)CCCNCCC(CNC(=O)Nc1cc(Cl)cc(Cl)c1)c1ccc(-c2cccc(C#N)c2)cc1 (centres unmarked) [Example 218] | 0.4 to 50 |
| CN(C)CCCNCCC(CNC(=O)Nc1cc(Cl)cc(Cl)c1)c1ccc(-c2cccc([N+](=O)[O-])c2)cc1 (centres unmarked) [Example 220] | 0.4 to 50 |
| CN(C)CCCNCCC(CNC(=O)Nc1cc(Cl)cc(Cl)c1)c1ccc(-c2cccc(Cl)c2)cc1 (centres unmarked) [Example 221] | 0.4 to 50 |
| CN(C)CCCNCCC(CNC(=O)Nc1cc(Cl)cc(Cl)c1)c1ccc(-c2ccc3c(c2)OCO3)cc1 (centres unmarked) [Example 223] | 0.4 to 50 |
| CN(C)CCCNCCC(CNC(=O)Nc1cc(Cl)cc(Cl)c1)c1ccc(-c2ccc(F)c(Cl)c2)cc1 (centres unmarked) [Example 224] | 0.4 to 50 |
| O=C(NCC(CCNC1CCCC1)c1ccc(-c2ccc3c(c2)OCO3)cc1)Nc1cc(Cl)cc(Cl)c1 (centres unmarked) [Example 227] | 51 to 500 |
| COc1cc(-c2ccc(C(CCNC3CCCC3)CNC(=O)Nc3cc(Cl)cc(Cl)c3)cc2)cc(OC)c1OC (centres unmarked) [Example 228] | 51 to 500 |
| O=C(NCC(CCNC1CCCC1)c1ccc(-c2ccsc2)cc1)Nc1cc(Cl)cc(Cl)c1 (centres unmarked) [Example 229] | 51 to 500 |
| O=C(NCC(CCNC1CCCC1)c1ccc(-c2cccs2)cc1)Nc1cc(Cl)cc(Cl)c1 (centres unmarked) [Example 230] | 51 to 500 |
| CN(C)CCCNCCC(CNC(=O)Nc1cc(Cl)cc(Cl)c1)c1ccc(-c2ccsc2)cc1 (centres unmarked) [Example 235] | 51 to 500 |
| COc1ccc(-c2ccc(C(CCNCCCN(C)C)CNC(=O)Nc3cc(Cl)cc(Cl)c3)cc2)cc1 (centres unmarked) [Example 240] | 51 to 500 |
| O=C(NCC(CCNC1CCCC1)c1ccc(-c2ccc(F)cc2)cc1)Nc1cc(Cl)cc(Cl)c1 (centres unmarked) [Example 243] | 51 to 500 |
| O=C(NCC(CCNC1CCCC1)c1ccc(-c2ccc(Cl)c(Cl)c2)cc1)Nc1cc(Cl)cc(Cl)c1 (centres unmarked) [Example 245] | 51 to 500 |
| CN(C)CCCNCCC(CNC(=O)Nc1cc(Cl)cc(Cl)c1)c1ccc(-c2ccc(Cl)c(Cl)c2)cc1 (centres unmarked) [Example 247] | 51 to 500 |
| O=C(NCC(CCNC1CCCC1)c1ccc(-c2cccc(C(=O)O)c2)cc1)Nc1cc(Cl)cc(Cl)c1 (centres unmarked) [Example 248] | 51 to 500 |
| Cc1ccc(-c2ccc(C(CCNC3CCCC3)CNC(=O)Nc3cc(Cl)cc(Cl)c3)cc2)cc1 (centres unmarked) [Example 249] | 51 to 500 |
| O=C(NCC(CCNC1CCCC1)c1ccc(-c2ccc(C(F)(F)F)cc2)cc1)Nc1cc(Cl)cc(Cl)c1 (centres unmarked) [Example 250] | 51 to 500 |
| COc1ccccc1-c1ccc(C(CCNCCCN(C)C)CNC(=O)Nc2cc(Cl)cc(Cl)c2)cc1 (centres unmarked) [Example 252] | 51 to 500 |
| Cc1ccc(-c2ccc(C(CCNCCCN(C)C)CNC(=O)Nc3cc(Cl)cc(Cl)c3)cc2)cc1 (centres unmarked) [Example 254] | 501 to 2500 |
| CN(C)CCCNCCC(CNC(=O)Nc1cc(Cl)cc(Cl)c1)c1ccc(-c2ccc(C(F)(F)F)cc2)cc1 (centres unmarked) [Example 255] | 501 to 2500 |
| O=C(NCc1ccc(F)c(F)c1)NCC(CCN1CCC(N2CCCCC2)CC1)c1ccc(Cl)c(Cl)c1 (centres unmarked) [Example 258] | 51 to 500 |
| COc1cc(CNCCC(CNC(=O)Nc2ccc(Cl)c(Cl)c2)c2ccc(Cl)c(Cl)c2)cc(OC)c1OC (centres unmarked) [Example 259] | 51 to 500 |
| CCOC(=O)N1CCC(NCCC(CNC(=O)Nc2ccc(F)c(Cl)c2)c2ccc(Cl)c(Cl)c2)CC1 (centres unmarked) [Example 260] | 51 to 500 |
| O=C(NCC(CCNCc1ccc2c(c1)OCO2)c1ccc(Cl)c(Cl)c1)Nc1ccc(F)c(Cl)c1 (centres unmarked) [Example 261] | 51 to 500 |
| CCOC(=O)N1CCC(NCCC(CNC(=O)Nc2ccc(F)c(F)c2)c2ccc(Cl)c(Cl)c2)CC1 (centres unmarked) [Example 262] | 51 to 500 |
| CCOC(=O)N1CCC(NCCC(CNC(=O)Nc2ccc(F)c([N+](=O)[O-])c2)c2ccc(Cl)c(Cl)c2)CC1 (centres unmarked) [Example 264] | 501 to 2500 |
| O=C(NCC(CCNC1CCCCC1)c1ccc(Cl)cc1)Nc1cc(Cl)cc(Cl)c1 (centres unmarked) [Example 266] | 51 to 500 |

The next lines start with the values.

| Ki [nM] | SMILES |
| --- | --- |
| 51 to 500 | O=C(NCC(CCNC1CCCC1)c1ccc(-c2ccc(F)c(Cl)c2)cc1)Nc1cc(Cl)cc(Cl)c1 (centres unmarked) [Example 226] |
| 51 to 500 | CN(C)CCCNCCC(CNC(=O)Nc1cc(Cl)cc(Cl)c1)c1ccc(-c2cccs2)cc1 (centres unmarked) [Example 231] |
| 51 to 500 | CN(C)CCCNCCC(CNC(=O)Nc1cc(Cl)cc(Cl)c1)c1ccc(-c2ccccc2Cl)cc1 (centres unmarked) [Example 232] |
| 51 to 500 | CN(C)CCCNCCC(CNC(=O)Nc1cc(Cl)cc(Cl)c1)c1ccc(-c2ccccc2)cc1 (centres unmarked) [Example 233] |
| 51 to 500 | O=C(NCC(CCNC1CCCC1)c1ccc(-c2cc(Cl)cc(Cl)c2)cc1)Nc1cc(Cl)cc(Cl)c1 (centres unmarked) [Example 236] |
| 51 to 500 | CN(C)CCCNCCC(CNC(=O)Nc1cc(Cl)cc(Cl)c1)c1ccc(-c2ccc(F)cc2)cc1 (centres unmarked) [Example 237] |
| 51 to 500 | COc1ccccc1-c1ccc(C(CCNC2CCCC2)CNC(=O)Nc2cc(Cl)cc(Cl)c2)cc1 (centres unmarked) [Example 238] |
| 51 to 500 | COc1ccc(-c2ccc(C(CCNCCCN(C)C)CNC(=O)Nc3cc(Cl)cc(Cl)c3)cc2)c(OC)c1 (centres unmarked) [Example 239] |
| 51 to 500 | COc1ccc(-c2ccc(C(CCNC3CCCC3)CNC(=O)Nc3cc(Cl)cc(Cl)c3)cc2)cc1 (centres unmarked) [Example 241] |
| 51 to 500 | O=C(NCC(CCNC1CCCC1)c1ccc(-c2ccc(O)cc2)cc1)Nc1cc(Cl)cc(Cl)c1 (centres unmarked) [Example 242] |
| 51 to 500 | CN(C)CCCNCCC(CNC(=O)Nc1cc(Cl)cc(Cl)c1)c1ccc(-c2ccc(Cl)cc2)cc1 (centres unmarked) [Example 246] |
| 51 to 500 | CN(C)CCCNCCC(CNC(=O)Nc1cc(Cl)cc(Cl)c1)c1ccc(-c2ccc(O)cc2)cc1 (centres unmarked) [Example 251] |
| 501 to 2500 | O=C(NCC(CCNC1CCCC1)c1ccc(-c2cc(C(F)(F)F)cc(C(F)(F)F)c2)cc1)Nc1cc(Cl)cc(Cl)c1 (centres unmarked) [Example 253] |
| 501 to 2500 | CN(C)CCCNCCC(CNC(=O)Nc1cc(Cl)cc(Cl)c1)c1ccc(-c2cc(C(F)(F)F)cc(C(F)(F)F)c2)cc1 (centres unmarked) [Example 256] |
| 501 to 2500 | COc1cc(-c2ccc(C(CCNCCCN(C)C)CNC(=O)Nc3cc(Cl)cc(Cl)c3)cc2)cc(OC)c1OC (centres unmarked) [Example 257] |
| 501 to 2500 | O=C(NCC(CCNC1CCC1)c1ccc(Cl)c(Cl)c1)Nc1ccc(F)c(Cl)c1 (centres unmarked) [Example 263] |
| 501 to 2500 | O=C(NCC(CCNC1CCC1)c1ccc(Cl)c(Cl)c1)Nc1ccc(F)c(F)c1 (centres unmarked) [Example 265] |
